The structures appear in SMILES notation.

In the first assay the target is T1, h FPR2 (Homo sapiens, UniProt P25090).
T1 construct: expressed in transfected cells
T1 sequence (P25090 1-351): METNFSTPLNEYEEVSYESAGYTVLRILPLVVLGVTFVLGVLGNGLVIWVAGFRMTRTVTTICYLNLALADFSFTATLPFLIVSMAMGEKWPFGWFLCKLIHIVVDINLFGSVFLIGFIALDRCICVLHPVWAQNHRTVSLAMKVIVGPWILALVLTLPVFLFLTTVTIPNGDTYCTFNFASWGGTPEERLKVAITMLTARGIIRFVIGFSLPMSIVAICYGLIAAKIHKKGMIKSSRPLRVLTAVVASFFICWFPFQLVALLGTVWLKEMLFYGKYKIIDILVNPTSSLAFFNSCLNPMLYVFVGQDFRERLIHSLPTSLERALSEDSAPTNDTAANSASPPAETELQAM
The assay is described as follows: Agonistic activity in hFPR2-Aq-CHO cells (FLIPR Calcium 5 fluorescence assay). Type of assay: cell-based. Conditions: 11 point half log dilution, final assay concentration from 10µM. The gist of the method:
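EC50 reflects the compound-evoked rise in Calcium 5 fluorescence over basal, recorded for 5 min on FLIPR and compared with no-compound wells. Dye-loaded hFPR2-Aq-CHO cells received half-log dilutions from 10 µM to 100 pM final in pH 7.4 HBSS buffer.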
For `Cc1cc(CN2CC[C@@H](NC(=O)Nc3ccc(Cl)cc3)[C@H](c3ccc(Cl)cn3)C2)no1` (single isomer, unassigned) [Ex-22, trans-1-(4-chlorophenyl)-3-[3-(5-chloropyridin-2-yl)-1-[(5-methyl-1,2-oxazol-3-yl)methyl]piperidin-4-yl]urea], the EC50 is 0.2 nM.
Regarding `CNCCN1CC[C@@H](NC(=O)Nc2ccc(Cl)cc2)[C@H](c2ccc(OC)cn2)C1` (relative stereo) [Ex-117, trans-1-(4-Chlorophenyl)-3-[3-(5-methoxy-pyridin-2-yl)-1-(2-methylamino-ethyl)-piperidin-4-yl]-urea], the EC50 was 3 nM.
Regarding `COc1ccc([C@@H]2CN(CC(C)(C)O)CC[C@H]2NC(=O)Nc2ccc(Cl)cc2)nc1` (relative stereo) [Ex-120, trans-1-(4-Chlorophenyl)-3-[1-(2-hydroxy-2-methyl-propyl)-3-(5-methoxy-pyridin-2-yl)-piperidin-4-yl]-urea], the EC50 is 0.7 nM.
Same read-out and setting: in the case of `COc1ccc([C@@H]2CN(CCS(C)(=O)=O)CC[C@H]2NC(=O)Nc2ccccc2)nc1` (relative stereo) [Ex-160, trans-1-[3-(5-Methoxy-pyridin-2-yl)-1-(2-methylsulfonyl-ethyl)-piperidin-4-yl]-3-phenyl-urea] it was 88 nM; in that of `Cc1cc(N2CC[C@@H](NC(=O)Nc3cc(C)ns3)[C@H](c3ccc(Cl)cn3)C2)ncn1` (relative stereo) [Ex-31, trans-1-[5-chloro-1'-(6-methyl-pyrimidin-4-yl)-1',2',3',4',5',6'-hexahydro-[2,3']bipyridinyl-4'-yl]-3-(3-methyl-isothiazol-5-yl)-urea], 5 nM; in that of `Cc1cc(NC(=O)N[C@@H]2CCN(c3ccncn3)C[C@H]2c2ccc(Cl)cn2)sn1` (single isomer, unassigned) [Ex-16, trans-1-(5-chloro-1'-pyrimidin-4-yl-1',2',3',4',5',6'-hexahydro-[2,3']bipyridinyl-4'-yl)-3-(3-methyl-isothiazol-5-yl)-urea], 0.9 nM.
The same measure, in the same setting: in the case of `COCCCN1CC[C@@H](NC(=O)Nc2ccc(Cl)cc2)[C@H](c2ncc(OC)cc2F)C1` (relative stereo) [Ex-193, trans-1-(4-chlorophenyl)-3-[3-fluoro-5-methoxy-1'-(3-methoxy-propyl)-1',2',3',4',5',6'-hexahydro-[2,3']bipyridinyl-4'-yl]-urea] it was 1 nM.
Same read-out and setting: in the case of `COc1ccc([C@@H]2CN(CC3CCNCC3)CC[C@H]2NC(=O)Nc2ccc(Cl)cc2)nc1` (single isomer, unassigned) [Ex-82, trans-1-(4-chlorophenyl)-3-(3-(5-methoxypyridin-2-yl)-1-(piperidin-4-ylmethyl)piperidin-4-yl)urea] it was 37 nM; in that of `COc1ccc([C@@H]2CN(CC3CC(OC)C3)CC[C@H]2NC(=O)Nc2ccc(Cl)cc2)nc1` (single isomer, unassigned) [Ex-195, trans-1-(4-chloro-phenyl)-3-[5-methoxy-1'-(3-methoxy-cyclobutylmethyl)-1',2',3',4',5',6'-hexahydro-[2,3']bipyridinyl-4'-yl]-urea], 0.5 nM; in that of `COc1ccc([C@@H]2CN(C3(C(N)=O)CC3)CC[C@H]2NC(=O)Nc2ccc(Cl)cc2)nc1` (relative stereo) [Ex-181, trans-1-[4-[[(4-Chlorophenyl)-carbamoyl]amino]-3-(5-methoxy-pyridin-2-yl)-piperidin-1-yl]-cyclopropane-1-carboxylic acid amide], 0.9 nM.
On to `COc1ccc([C@@H]2CN(C(=O)CN(C)C)CC[C@H]2NC(=O)Nc2cc(C)ns2)nc1` (relative stereo) [Ex-118, trans-1-[1-(2-Dimethylamino-acetyl)-3-(5-methoxy-pyridin-2-yl)-piperidin-4-yl]-3-(3-methyl-isothiazol-5-yl)-urea], for which the concentration giving a half-maximal response (EC50) is 5 nM.
On the same count and under the same terms, in the case of `COc1ccc([C@@H]2CN(C(=O)CN(C)C)CC[C@H]2NC(=O)Nc2ccccc2)nc1` (relative stereo) [Ex-157, trans-1-[1-(2-Dimethylamino-acetyl)-3-(5-methoxy-pyridin-2-yl)-piperidin-4-yl]-3-phenyl-urea] it was 81 nM; in that of `COc1ccc([C@H]2CN(C(C)(C)C(N)=O)CC[C@@H]2NC(=O)Nc2ccc(Cl)cc2)nc1` [Ex-225], 8 nM.
The same measure, in the same setting: in the case of `COc1cnc([C@@H]2CN(CC(C)(C)O)CC[C@H]2NC(=O)Nc2ccc(Cl)cc2)c(F)c1` (relative stereo) [Ex-208, trans-1-(4-chloro-phenyl)-3-[3-fluoro-1'-(2-hydroxy-2-methyl-propyl)-5-methoxy-1',2',3',4',5',6'-hexahydro-[2,3']bipyridinyl-4'-yl]-urea] it was 0.7 nM; in that of `COc1ccc([C@@H]2CN(CC3(OC)CC3)CC[C@H]2NC(=O)Nc2ccc(Cl)cc2)nc1` (relative stereo) [Ex-201, trans-1-(4-chloro-phenyl)-3-[5-methoxy-1'-(1-methoxy-cyclopropylmethyl)-1',2',3',4',5',6'-hexahydro-[2,3']bipyridinyl-4'-yl]-urea], 0.6 nM; in that of `O=C(Nc1ccc(Cl)cc1)N[C@@H]1CCN(C(=O)C2CCNCC2)C[C@H]1c1ccc(Cl)s1` (relative stereo) [Ex-130, trans-1-(4-Chlorophenyl)-3-[3-(5-chloro-thiophen-2-yl)-1-(piperidine-4-carbonyl)-piperidin-4-yl]-urea], 4 nM.
On the same count and under the same terms, the value for `COc1ccc([C@@H]2CN(C(=O)CN(C)C)CC[C@H]2NC(=O)Nc2ccc(Cl)cc2)nc1` (single isomer, unassigned) [Ex-189, trans-1-(4-chlorophenyl)-3-[1-[2-(dimethylamino)acetyl]-3-(5-methoxypyridin-2-yl)piperidin-4-yl]urea] was 1.7 nM.
For `Cc1cc(NC(=O)N[C@@H]2CCN(c3cccnn3)C[C@H]2c2ccc(Cl)cn2)sn1` (relative stereo) [Ex-32, trans-1-(5-chloro-1'-pyridazin-3-yl-1',2',3',4',5',6'-hexahydro-[2,3']bipyridinyl-4'-yl)-3-(3-methyl-isothiazol-5-yl)-urea], the EC50 was 3 nM.
Same read-out and setting: in the case of `COc1ccc([C@@H]2CN(C(=O)C3CCC(O)CC3)CC[C@H]2NC(=O)Nc2ccc(Cl)cc2)nc1` (relative stereo) [Ex-90, trans-1-(4-chloro-phenyl)-3-[1'-(4-hydroxy-cyclohexanecarbonyl)-5-methoxy-1',2',3',4',5',6'-hexahydro-[2,3']bipyridinyl-4'-yl]-urea] it was 32 nM; in that of `COc1ccc([C@@H]2CN(C(=O)C3CCNCC3)CC[C@H]2NC(=O)Nc2ccccc2)nc1` (relative stereo) [Ex-151, trans-1-[3-(5-Methoxy-pyridin-2-yl)-1-(piperidine-4-carbonyl)-piperidin-4-yl]-3-phenyl-urea], 35 nM; in that of `COc1ncc(CN2CC[C@@H](NC(=O)Nc3ccc(Cl)cc3)[C@H](c3ccc(Cl)s3)C2)cn1` (relative stereo) [Ex-75, trans-1-(4-chlorophenyl)-3-[3-(5-chlorothiophen-2-yl)-1-[(2-methoxypyrimidin-5-yl)methyl]piperidin-4-yl]urea], 3 nM.

The same assay, now with this note: agonistic response at 0.1µM.
`COc1ccc([C@@H]2CN(CC3CC3)CC[C@H]2NC(=O)Nc2ccc(Cl)cc2)nc1` (relative stereo) [Ex-173, trans-1-(4-Chlorophenyl)-3-[1-(cyclopropyl-methyl)-3-(5-methoxy-pyridin-2-yl)-piperidin-4-yl]-urea]: the activation at 0.1 µM was 44%.
As for `COc1ccc([C@@H]2CN(CC3CCOCC3)CC[C@H]2NC(=O)Nc2ccc(Cl)cc2)nc1` (relative stereo) [Ex-50, trans-1-(4-chlorophenyl)-3-[(5-methoxypyridin-2-yl)-1-(oxan-4-ylmethyl)piperidin-4-yl]urea], the “h FPR2 FLIPR % @0.1µM” value amounted to 40%@0.1µM.
Consider `Cc1cc(NC(=O)N[C@@H]2CCN(Cc3ncccn3)C[C@H]2c2ccc(Cl)s2)sn1` (relative stereo) [Ex-63, trans-1-[3-(5-chlorothiophen-2-yl)-1-(pyrimidin-2-ylmethyl)piperidin-4-yl]-3-(3-methyl-1,2-thiazol-5-yl)urea], for which the activation at 0.1 µM was found to be 44%.
With `Cc1cc(CN2CC[C@@H](NC(=O)Nc3ccc(Cl)cc3)[C@H](c3ccc(Cl)s3)C2)no1` (relative stereo) [Ex-45, trans-1-(4-chlorophenyl)-3-[3-(5-chlorothiophen-2-yl)-1-[(5-methyl-1,2-oxazol-3-yl)methyl]piperidin-4-yl]urea], the activation at 0.1 µM amounted to 10%.
The same measure, in the same setting: in the case of `COCCC(=O)N1CC[C@@H](NC(=O)Nc2ccc(Cl)cc2)[C@H](c2ccc(Cl)s2)C1` (relative stereo) [Ex-106, trans-1-(4-chloro-phenyl)-3-[3-(5-chloro-thiophen-2-yl)-1-(3-methoxy-propionyl)-piperidin-4-yl]-urea] it was 41%; in that of `COc1ccc([C@@H]2CN(C3COC3)CC[C@H]2NC(=O)Nc2ccccc2)nc1` (relative stereo) [Ex-162, trans-1-[3-(5-Methoxy-pyridin-2-yl)-1-(oxetan-3-yl)-piperidin-4-yl]-3-phenyl-urea], 34%.
In the case of `COc1ccc([C@@H]2CN(CC(C)(C)O)CC[C@H]2NC(=O)Nc2ccc(Cl)cc2)nc1` (relative stereo) [Ex-178, trans-1-(4-Chlorophenyl)-3-[1-(2-hydroxy-2-methyl-propyl)-3-(5-methoxy-pyridin-2-yl)-piperidin-4-yl]-urea], the activation at 0.1 µM is 0.2%.

A word on the EC50: it is the concentration giving half of the maximal effect.
